In patent publication US20090222938A1, “Therapeutic Target Molecules For The Development of Novel Medicaments for Degenerative Diseases” (Neuroprofile GMBH, priority 2006, published 2009):

Key:
Format in all cases: cell-based
NT2-N neuron cells = experiment: Live/Dead-Viability/Cytotoxicity Assay, survival of neurons under chronic sublethal oxidative stressor; details: stressor 1.0-25 μM, serum-free; more than 3 days after the time point of sampling
From the text: The increase of MAC30-mRNA in NT2-N neuron cells (Andrews P. W., Dev. Biol., 103, pp 285-293, 1984; Pleasure S. J., Page C., Lee V. M.-Y., J. Neurosci., 12, pp 1802-1815, 1992) has been detected in microarray analyses using fluorescence-labelled cDNA after treating the cells under serum-free conditions with chronic sublethal concentrations of the oxidative stressor haloperidol (Sigma; catalogue No. H-1512). Appropriate conditions for an optimal survival rate of the cells were obtained by means of the Live/Dead-Viability/Cytotoxicity Assay (Molecular Probes) according to the manual of the manufacturer. […] 2′,7′-dichlorodihydrofluorescein-diacetate (Sigma, catalogue No. D6883) was used for determining total cell quantity of ROS. […] Subsequently, the cells were homogenized by sonication, centrifugated (20 minutes, 4° C., 20.000×g), and the fluorescence of the supernatant was measured. […] The relative increase of ROS was calculated in relation to the control. Further, ROS was determined by means of dihydroethidium (DHE; Sigma catalogue No. D7008). 5 μM DHE was added into an aliquot of the scraped cells, incubated for 1 hour at 37° C., processed analogous to the DCFDA procedure, and the fluorescence of the supernatant was determined. The protein adjusted alteration of mitochondrial ROS was calculated in relation to the untreated control. […]

[1] = test system: MAC30-mRNA in NT2-N neuron cells; experiment: MAC30 mRNA quantitative real-time RT-PCR (SYBR Green 1) after stressor treatment
From the text: The MAC30-mRNA increase may be quantified by a quantitative real-time RT-PCR analysis (qRTRTPCR) with fluorescence labelling by SYBR Green 1.

[2] = test system: BRI3-mRNA in NT2-N neurons; experiment: BRI3 mRNA quantitative real-time RT-PCR after stressor treatment
From the text: This increase may be quantified by means of a quantitative real-time RT-PCR analysis (qRTRTPCR) with fluorescence labelling by SYBR Green 1.

[3] = test system: G1P3-mRNA in NT2-N neurons; experiment: G1P3 mRNA quantitative real-time RT-PCR after stressor treatment
From the text: The increase was quantified by means of a quantitative real-time RT-PCR analysis (qRTRTPCR) with fluorescence labeling by SYBR Green 1. […] The PCR primer pair G1P3-For1 (5′-[sequence]-3′) (SEQ ID NO: 118) and GIP3-Rev2 (5′-[sequence]-3′) (SEQ ID NO: 119) is suitable for the analysis of the G1P3 mRNA by means of qRTRTPCR.

[4] = test system: LOC222171-mRNA in NT2-N neurons; experiment: LOC222171 mRNA quantitative real-time RT-PCR after stressor treatment; details: 15 days of treatment
From the text: This increase was quantified by means of a quantitative real time RT-PCR analysis (qRTRTPCR) featuring fluorescence labelling by SYBR-Green 1. […] The PCR primer pair LOC222171-For1 (5′-[sequence]-3′) (SEQ ID NO: 120) and LOC222171-Rev2 (5′-[sequence]-3′) (SEQ ID NO: 121) is suitable for the analysis of the LOC222171 mRNA by means of qRTRTPCR.

[5] = test system: CUEDC1-mRNA in NT2-N neurons; experiment: CUEDC1 mRNA quantitative real-time RT-PCR after stressor treatment; details: 15 days of chronic oxidative stress
From the text: This increase was further quantified by means of a quantitative real time RT-PCR analysis (qRTRTPCR) with fluorescence labelling by SYBR-Green 1. […] The PCR primer pair CUEDC1-For1 (5′-[sequence]-3′) (SEQ ID NO: 122) and CUEDC1-Rev2 (5′-[sequence]-3′) (SEQ ID NO: 123) is suitable for the analysis of the CUEDC1 mRNA by means of qRTRTPCR.

[6] = test system: NPC2-mRNA in NT2-N neurons; experiment: NPC2 mRNA quantitative real-time RT-PCR after stressor treatment
[7] = test system: SCD-mRNA in NT2-N neurons; experiment: SCD mRNA quantitative real-time RT-PCR after stressor treatment; details: 15 day treatment
[8] = test system: IDI1 protein in NT2-N neurons; experiment: IDI1 protein quantity by two dimensional polyacrylamid gel electrophoresis and mass spectrometric identification; details: 15 day treatment
From the text: The increase of the IDI1 protein (IDI1=Isopentenyl-diphosphate delta isomerase 1; =Isopentenyl diphosphate dimethylallyl diphosphate isomerase 1) was detected with a two dimensional polyacrylamid gel electrophoresis after treatment of NT2-N neurons with haloperidol (as described in example 1) and subsequent mass spectrometric identification of the protein spot.

[9] = longer treatment, 'may achieve up to ... or more'

## O=C(CCCN1CCC(O)(c2ccc(Cl)cc2)CC1)c1ccc(F)cc1 [haloperidol]
NT2-N neuron cells
  neurons alive: More than 75%
[1]; 8-day treatment, 1.0-25 μM
  MAC30-mRNA increase: at least 50%
[1]; [9]
  MAC30-mRNA increase: ≥ 200%
[2]; 8-day treatment
  BRI3-mRNA increase: ≥ 40%
[2]; 3 days after treatment
  BRI3-mRNA increase: increase can be detected
[2]; [9]
  BRI3-mRNA increase: ≥ 200%
[3]; 8-day treatment
  G1P3-mRNA increase: ≥ 50%
[3]; after 3 days
  G1P3-mRNA increase: marked increase
[3]; [9]
  G1P3-mRNA increase: ≥ 400%
[4]
  LOC222171-mRNA increase: ≥ 50%
[5]
  CUEDC1-mRNA increase: more than 30%
[6]; 15 days of chronic sublethal oxidative stress
  NPC2-mRNA increase: ≥ 50%
[6]; after 3 days
  NPC2-mRNA increase in comparison to untreated neurons: significant increase
[7]
  SCD-mRNA increase in comparison to untreated neurons: ≥ 50%
[8]
  IDI1-protein quantity increase: ≥ 30%
